Assay results taken from article PMC4838342 (Nucleic Acids Research, 2015).
Ends that are not written are not given here.

Assays:
(His)6-sNASP = test: Pulldown of MBP-H3 fusions by (His)6-sNASP (epitope mapping); format: binding, human; conditions: MBP fusions from whole cell bacterial extracts; Nickel-NTA beads; SDS-PAGE, Coomassie
Procedure: (§1) Protein was eluted in the same buffer with 250 mM imidazole, but without protease inhibitors. The (His)6 tag was cleaved overnight by TEV protease, whilst concomitantly dialysing to 100 mM sodium chloride, 20 mM Tris–HCl pH 8.0, 1 mM EDTA and 5 mM dithiothreitol. Cleaved protein was further purified by ion-exchange using a ResourceQ column (GE Healthcare) before gel filtration chromatography in 200 mM sodium chloride, 20 mM Hepes-KOH pH 7.6 and 1 mM EDTA using a 26/60 Superdex 200 column (GE Healthcare). The purified protein was concentrated and stored in aliquots at −80°C. Homologues, truncations and point mutants of sNASP were expressed and purified using the same method. MBP-H3 peptide fusions were expressed in bacteria and used as whole cell extracts (epitope mapping) or purified over a Dextrin Sepharose column (GE Healthcare) in one-step purification in 0.5 M sodium chloride, 20 mM Hepes-KOH pH 7.6, 1 mM EDTA and 5 mM dithiothreitol. Concentrated protein was dialysed against 200 mM sodium chloride, 20 mM Hepes-KOH, 1 mM EDTA and 5 mM dithiothreitol and stored in aliquots at −80°C.
Mutations were made in the MBP H3 116–135 construct using a mixture of site-direct mutagenesis and oligo ligation. Whole cell extracts were prepared from bacteria and used as inputs for the pulldown experiments with (His)6-sNASP pre-bound to Nickel-NTA beads (GE Healthcare).

Sim3 [1] = test: Pulldown of MBP H3 116–135 by Sim3; format: binding, Schizosaccharomyces pombe; conditions: (His)6-tagged recombinant homologue
Procedure: as §1
(§2) Mutations were made in the MBP H3 116–135 construct using a mixture of site-direct mutagenesis and oligo ligation. Whole cell extracts were prepared from bacteria and used as inputs for the pulldown experiments with (His)6-sNASP pre-bound to Nickel-NTA beads (GE Healthcare). […]

[2] = system: sNASP homologue from Arabidopsis thaliana; test: Pulldown of MBP H3 116–135 by A. thaliana sNASP homologue; format: binding; conditions: (His)6-tagged recombinant homologue
Procedure: as §1, §2

[3] = system: sNASP homologue from Chaetomium thermophilum; test: Pulldown of MBP H3 116–135 by C. thermophilum sNASP homologue; format: binding; conditions: (His)6-tagged recombinant homologue
Procedure: as §1, §2

sNASP [4] = test: Isothermal titration calorimetry, sNASP titrated into MBP H3 116–135; parameters: species or system human; conditions: one-site binding model
Procedure: Isotherms were analysed by the software NITPIC and SEDPHAT ([43]) and plotted using the software GUSSI.

Hif1-GST = test: Gel filtration, Hif1-GST + MBP H3 116–135; format: binding, Saccharomyces cerevisiae; conditions: Superdex S200; 20 mM Hepes-KOH pH 7.5, 200 mM NaCl; Hif1 GST tagged
Procedure: (§3) Analytical gel filtration was carried out using a Superdex S200 10/300 Gl column (GE Healthcare) in 20 mM Hepes-KOH pH 7.5 and 200 mM sodium chloride, unless otherwise stated. 0.5 ml fractions were collected encompassing the void (7 ml) and bed (21 ml) volumes of the column. Fractions were separated by SDS-PAGE and stained with Coomassie Brilliant Blue (SERVA).

sNASP [5] = test: Analytical gel filtration, sNASP + MBP H3 116–135; format: binding, human; conditions: Superdex S200; 20 mM Hepes-KOH pH 7.5, 200 mM NaCl
Procedure: as §3

Sim3 [6] = test: Gel filtration, Sim3 + MBP H3 116–135; format: binding, Schizosaccharomyces pombe; conditions: Superdex S200; 20 mM Hepes-KOH pH 7.5, 200 mM NaCl
Procedure: as §3

Hif1 = test: Pulldown of MBP H3 116–135 by Hif1; format: binding, Saccharomyces cerevisiae; conditions: (His)6-tagged recombinant homologue
Procedure: as §1, §2

sNASP [7] = test: Fluorescence-2-hybrid (F2H) assay at LacO array, EGFP-sNASP; format: cell-based, human; conditions: U2OS cells, LacO (256×) array, mCherry-LacI-histone constructs, live cells
Procedure: For all the F2H assays, we used human U2OS cells harbouring the stably integrated lacO (256×) array described earlier ([44]), except for mitochondrial F2H, which was carried out on U2OS cells without an integrated array. F2H assays were essentially performed as previously described in ([45],[46]) and ([44]). Image analysis was manually performed with ImageJ image analysis software. Fluorescence intensity at the LacI array was calculated as a percentage increase over the nucleoplasm. Assignment of the LacO array and nucleoplasm were done manually. Twenty cells were counted for statistical analysis so as not to inflate the calculated P-value. Only cells in which a clearly discernable array was present were counted. For the mitochondrial F2H, the first 70 residues of the outer mitochondrial membrane protein TOM70 were cloned onto the N-terminus of mCherry. Full length H3 or H3 residues 116–135 was then cloned onto the C-terminus of mCherry to create a TOM70-mCherry-Histone triple fusion. Deleting residues 378–383 using standard site-directed mutagenesis techniques disrupted the nuclear localization sequence (NLS) of mEGFP-sNASP, resulting in its cytoplasmic expression.

125–135: H3 fragment fused to MBP (QLARRIRGERA; also: fused to MBP; UniProt P68431 126-136, looked up, fragment)
pulldown by (His)6-sNASP ((His)6-sNASP): pulled down efficiently

CENPA: homologous region of the CENPA variant of H3 from human (VTLFPKDVQLARRIRGLEE; UniProt P49450 119-137, looked up, fragment)
pulldown by (His)6-sNASP ((His)6-sNASP): able to pull down

MBP H3 116–135: C-terminal 20 residues of H3 fused to MBP
pulldown by S. pombe homologue (Sim3) (Sim3 [1]): pulled down stoichiometric amounts | pulldown by A. thaliana homologue [2]: pulled down stoichiometric amounts | pulldown by C. thermophilum homologue [3]: pulled down stoichiometric amounts | stoichiometry in words (sNASP [4]; partial degradation likely caused underestimated ratios): close to 1:1 stoichiometry | Kd (sNASP [4]; range of n = 3 with varying cell and titrant concentrations, read-out: dissociation constant): 47 to 68 nM | complex formation with Hif1-GST by gel filtration (Hif1-GST): eluted in separate fractions | complex formation by gel filtration (sNASP [5]): form a stable complex | complex formation with Sim3 by gel filtration (Sim3 [6]): coeluted | pulldown by S. cerevisiae homologue (Hif1) (Hif1): no pull down was observed | pulldown by (His)6-sNASP ((His)6-sNASP): pulled down to near stoichiometric amounts

last 20 residues of H3: short region encompassing the last 20 residues of H3
interaction with sNASP in F2H assay (sNASP [7]): sufficient for binding
